Test system: total serum bilirubin (TSB)
Assay: Phase 2b trial: total serum bilirubin (TSB), adjusted and unadjusted, change from baseline
Type: in vivo, human
Set-up: total serum bilirubin / total serum bilirubin, Delta (change from baseline) / Change from baseline of total serum bilirubin: unit not given here
Details: for change from baseline in unadjusted TSB, Mean (SD) / change from baseline in unadjusted TSB, Median / unadjusted TSB, Mean (SD) / unadjusted TSB, Median / change from baseline in adjusted TSB, LS mean (SEM) / change from baseline in adjusted TSB, LS mean difference versus placebo / change from baseline in unadjusted TSB, LS Mean (SEM) / change from baseline in unadjusted TSB, LS Mean Difference versus placebo / adjusted TSB, Mean (SD) / change from baseline in adjusted TSB, Mean (SD) / change from baseline in adjusted TSB, Median / change from baseline in adjusted TSB, LS mean difference versus placebo, MMRM / change from baseline in adjusted TSB, LS means (SEM), MMRM: ITT; for Change from baseline of total serum bilirubin: 4.5 mg/kg (N = 5); for change from baseline in adjusted TSB, LS mean difference versus placebo, MMRM / change from baseline in adjusted TSB, LS means (SEM), MMRM: observed case
Method: Three cohorts of subjects were recruited. This clinical study was designed to evaluate safety and efficacy parameters in each cohort.
Scheduled assessments (including TSB) occurred before treatment and at 0.75 and 2 hours (or 1.5 and 3 hours, depending on PK blood sampling assignment); 6, 12, 24, 48, and 72 hours; and 14 and 30 (except TSB) days after treatment or early termination.
The primary efficacy endpoint was the change in adjusted TSB from baseline to 48 hours after treatment. The adjusted TSB was a calculation of the percentage variance of the TSB level from the age specific threshold for PT initiation per the AAP Guidelines, i.e., an indication of the distance below the PT threshold by time.
The Secondary Efficacy Endpoints were the change from baseline in unadjusted TSB at 48 hours after treatment, change from baseline in adjusted and unadjusted TSB at various other time points after treatment, percent change from baseline in unadjusted TSB, proportion of subjects who require PT/exchange transfusion (ET), time to PT/ET, duration of PT and time to hospital discharge.
Intent-to-treat population (ITT): Defined as all subjects who were randomly assigned treatment in the clinical study, had received IMP, and had at least 1 post baseline TSB measurement during the first 48 hours after treatment. Subjects were summarized based on randomized treatment.
Analysis of Efficacy Parameters: The primary efficacy analysis applied the analysis of covariance (ANCOVA) method to determine if there was a significant difference between treatment groups in change in adjusted TSB levels from baseline to 48 hours post baseline after controlling for the effects of gestational age and adjusted baseline TSB levels. If assumptions of ANCOVA appeared to be violated, a Wilcoxon rank-sum test could be performed instead. Time-to-event variables were analyzed using the Kaplan-Meier method, and Kaplan-Meier survival curves were presented.

[1] = 3.0 mg/kg IM, 72 h, LOCF, ANCOVA
[2] = 3.0 mg/kg IM, 14 days/early termination, LOCF
[3] = 3.0 mg/kg IM, 14 days/early termination, LOCF, ANCOVA
[4] = 3.0 mg/kg versus the placebo group, 48 Hours/Early termination, PP Population, ANCOVA
[5] = 3.0 mg/kg, 48 Hours/Early termination, PP Population, LOCF
[6] = 3.0 mg/kg, 6 hrs, unadjusted TSB, ITT Population
[7] = 3.0 mg/kg, 12 hrs, unadjusted TSB, ITT Population
[8] = 3.0 mg/kg, 24 hrs, unadjusted TSB, ITT Population
[9] = 3.0 mg/kg, 48 hrs, unadjusted TSB, ITT Population
[10] = 3.0 mg/kg, baseline, PP Population
[11] = 3.0 mg/kg, baseline, unadjusted TSB, ITT Population
[12] = 4.5 mg/kg IM, 6 h, LOCF, ANCOVA
[13] = 4.5 mg/kg IM, 12 h, LOCF, ANCOVA

tin IV mesoporphyrin IX dichloride [Stannsoporfin]
change from baseline in unadjusted TSB, Mean (SD) (3.0 mg/kg IM, 72 h, LOCF): 1.66 (3.496) mg/dL | change from baseline in unadjusted TSB, Median (3.0 mg/kg IM, 72 h, LOCF): 2.45 mg/dL | unadjusted TSB, Mean (SD) (3.0 mg/kg IM, 72 h, LOCF): 9.87 (3.681) mg/dL | unadjusted TSB, Median (3.0 mg/kg IM, 72 h, LOCF): 10.70 mg/dL | change from baseline in adjusted TSB, LS mean (SEM) [1]: −19.28 (6.633) % | change from baseline in adjusted TSB, LS mean difference versus placebo [1]: −14.53% | change from baseline in unadjusted TSB, LS Mean (SEM) [1]: 2.77 (1.133) mg/dL | change from baseline in unadjusted TSB, LS Mean Difference versus placebo [1]: -2.18 mg/dL | change from baseline in unadjusted TSB, Mean (SD) [2]: −2.98 (5.389) mg/dL | change from baseline in unadjusted TSB, Median [2]: -4.80 mg/dL | unadjusted TSB, Mean (SD) [2]: 5.23 (5.123) mg/dL | unadjusted TSB, Median [2]: 3.40 mg/dL | change from baseline in unadjusted TSB, LS Mean (SEM) [3]: −2.42 (1.324) mg/dL | change from baseline in unadjusted TSB, LS Mean Difference versus placebo [3]: -0.12 mg/dL | 48 Hours/Early termination change from baseline in unadjusted TSB, LS mean difference [4]: -1.74 mg/dL | P-value of LS mean difference, change from baseline in unadjusted TSB [4]: 0.078 | 48 Hours/Early termination change from baseline in unadjusted TSB, Max [5]: 5.4 mg/dL | 48 Hours/Early termination change from baseline in unadjusted TSB, Mean (SD) [5]: 2.20 (2.928) mg/dL | 48 Hours/Early termination change from baseline in unadjusted TSB, Median [5]: 2.87 mg/dL | 48 Hours/Early termination change from baseline in unadjusted TSB, Min [5]: -3.4 mg/dL | 48 Hours/Early termination unadjusted TSB, Max [5]: 13.8 mg/dL | 48 Hours/Early termination unadjusted TSB, Mean (SD) [5]: 10.53 (2.911) mg/dL | 48 Hours/Early termination unadjusted TSB, Median [5]: 11.60 mg/dL | 48 Hours/Early termination unadjusted TSB, Min [5]: 4.2 mg/dL | 48 Hours/Early termination change from baseline in unadjusted TSB, LS mean (SEM) (3.0 mg/kg, 48 Hours/Early termination, PP Population, LOCF, ANCOVA): 2.20 (0.881) mg/dL | 6 hrs Percent Change from Baseline in TSB, Max [6]: 59.0% | 6 hrs Percent Change from Baseline in TSB, Mean (SD) [6]: 19.54 (12.055) % | 6 hrs Percent Change from Baseline in TSB, Min [6]: −2.6% | 6 hrs TSB, Max [6]: 12.3 mg/dL | 6 hrs TSB, Mean (SD) [6]: 9.74 (1.730) mg/dL | 6 hrs TSB, Min [6]: 6.8 mg/dL | 12 hrs Percent Change from Baseline in TSB, Max [7]: 73.8% | 12 hrs Percent Change from Baseline in TSB, Mean (SD) [7]: 26.17 (15.650) % | 12 hrs Percent Change from Baseline in TSB, Min [7]: 0.0% | 12 hrs TSB, Max [7]: 12.2 mg/dL | 12 hrs TSB, Mean (SD) [7]: 10.26 (1.748) mg/dL | 12 hrs TSB, Min [7]: 6.9 mg/dL | 24 hrs Percent Change from Baseline in TSB, Max [8]: 86.9% | 24 hrs Percent Change from Baseline in TSB, Mean (SD) [8]: 24.84 (23.900) % | 24 hrs Percent Change from Baseline in TSB, Median [8]: 23.00% | 24 hrs Percent Change from Baseline in TSB, Min [8]: −11.8% | 24 hrs TSB, Max [8]: 11.9 mg/dL | 24 hrs TSB, Mean (SD) [8]: 10.06 (1.757) mg/dL | 24 hrs TSB, Min [8]: 6.7 mg/dL | 48 hrs Percent Change from Baseline in TSB, Max [9]: 88.5% | 48 hrs Percent Change from Baseline in TSB, Mean (SD) [9]: 31.84 (36.062) % | 48 hrs Percent Change from Baseline in TSB, Min [9]: −44.7% | 48 hrs TSB, Max [9]: 14.1 mg/dL | 48 hrs TSB, Mean (SD) [9]: 10.68 (2.956) mg/dL | 48 hrs TSB, Min [9]: 4.2 mg/dL | mean TSB levels (3.0 mg/kg, 14 days after treatment (text, not LOCF table)): 5.23 mg/dL | Baseline unadjusted TSB, Max [10]: 10.4 mg/dL | Baseline unadjusted TSB, Mean (SD) [10]: 8.33 (1.585) mg/dL | Baseline unadjusted TSB, Median [10]: 8.90 mg/dL | Baseline unadjusted TSB, Min [10]: 6.0 mg/dL | Baseline TSB, Max [11]: 10.4 mg/dL | Baseline TSB, Mean (SD) [11]: 8.21 (1.577) mg/dL | Baseline TSB, Min [11]: 5.5 mg/dL | Change from baseline of total serum bilirubin (6 hours, preliminary data): 1.69 ± 0.50 | Change from baseline of total serum bilirubin (24 hours, preliminary data): 0.93 ± 0.20 | Change from baseline of total serum bilirubin (48 hours, preliminary data): 0.80 ± 2.79 | total serum bilirubin (4.5 mg/kg IM (N = 5), 48 hours, treated per protocol, preliminary data): 9.88 ± 2.8 | adjusted TSB, Mean (SD) (4.5 mg/kg IM, 6 h, LOCF): −4.49 (11.322) % | change from baseline in adjusted TSB, Mean (SD) (4.5 mg/kg IM, 6 h, LOCF): 4.70 (4.583) % | change from baseline in adjusted TSB, Median (4.5 mg/kg IM, 6 h, LOCF): 4.10% | change from baseline in unadjusted TSB, Mean (SD) (4.5 mg/kg IM, 6 h, LOCF): 1.69 (0.493) mg/dL | change from baseline in unadjusted TSB, Median (4.5 mg/kg IM, 6 h, LOCF): 1.61 mg/dL | unadjusted TSB, Mean (SD) (4.5 mg/kg IM, 6 h, LOCF): 11.27 (2.074) mg/dL | unadjusted TSB, Median (4.5 mg/kg IM, 6 h, LOCF): 11.25 mg/dL | change from baseline in adjusted TSB, LS mean (SEM) [12]: 4.03 (2.697) % | change from baseline in adjusted TSB, LS mean difference versus placebo [12]: −0.35% | change from baseline in unadjusted TSB, LS Mean (SEM) [12]: 1.62 (0.293) mg/dL | change from baseline in unadjusted TSB, LS Mean Difference versus placebo [12]: 0.03 mg/dL | change from baseline in adjusted TSB, LS mean difference versus placebo, MMRM (4.5 mg/kg IM, 6 h): −2.38% | change from baseline in adjusted TSB, LS means (SEM), MMRM (4.5 mg/kg IM, 6 h): 2.00 (2.825) % | adjusted TSB, Mean (SD) (4.5 mg/kg IM, 12 h, LOCF): −7.80 (9.906) % | change from baseline in adjusted TSB, Mean (SD) (4.5 mg/kg IM, 12 h, LOCF): 1.39 (6.394) % | change from baseline in adjusted TSB, Median (4.5 mg/kg IM, 12 h, LOCF): −0.70% | change from baseline in unadjusted TSB, Mean (SD) (4.5 mg/kg IM, 12 h, LOCF): 1.89 (0.421) mg/dL | change from baseline in unadjusted TSB, Median (4.5 mg/kg IM, 12 h, LOCF): 1.92 mg/dL | unadjusted TSB, Mean (SD) (4.5 mg/kg IM, 12 h, LOCF): 11.48 (1.924) mg/dL | unadjusted TSB, Median (4.5 mg/kg IM, 12 h, LOCF): 11.27 mg/dL | change from baseline in adjusted TSB, LS mean (SEM) [13]: 2.17 (3.960) % | change from baseline in adjusted TSB, LS mean difference versus placebo [13]: −4.96% | change from baseline in unadjusted TSB, LS Mean (SEM) [13]: 1.95 (0.453) mg/dL | change from baseline in unadjusted TSB, LS Mean Difference versus placebo [13]: -0.65 mg/dL | change from baseline in adjusted TSB, LS mean difference versus placebo, MMRM (4.5 mg/kg IM, 12 h): −8.38% | change from baseline in adjusted TSB, LS means (SEM), MMRM (4.5 mg/kg IM, 12 h): −2.41 (3.856) % | adjusted TSB, Mean (SD) (4.5 mg/kg IM, 24 h, LOCF): −24.66 (15.145) % | change from baseline in adjusted TSB, Mean (SD) (4.5 mg/kg IM, 24 h, LOCF): −15.48 (18.694) %
